According to ChEMBL document CHEMBL1132622, “Synthesis, structure-activity relationships, and in vivo evaluations of substituted di-tert-butylphenols as a novel class of potent, selective, and orally active cyclooxygenase-2 inhibitors. 2. 1,3,4- and 1,2,4-thiadiazole series” (J Med Chem, 1999):

Key:
[1] = biological target: T1, Prostaglandin G/H synthase 1 (Ovis aries, UniProt P05979); experiment: IC50 value against ovine Prostaglandin G/H synthase 1
T1 sequence (P05979 whole entry): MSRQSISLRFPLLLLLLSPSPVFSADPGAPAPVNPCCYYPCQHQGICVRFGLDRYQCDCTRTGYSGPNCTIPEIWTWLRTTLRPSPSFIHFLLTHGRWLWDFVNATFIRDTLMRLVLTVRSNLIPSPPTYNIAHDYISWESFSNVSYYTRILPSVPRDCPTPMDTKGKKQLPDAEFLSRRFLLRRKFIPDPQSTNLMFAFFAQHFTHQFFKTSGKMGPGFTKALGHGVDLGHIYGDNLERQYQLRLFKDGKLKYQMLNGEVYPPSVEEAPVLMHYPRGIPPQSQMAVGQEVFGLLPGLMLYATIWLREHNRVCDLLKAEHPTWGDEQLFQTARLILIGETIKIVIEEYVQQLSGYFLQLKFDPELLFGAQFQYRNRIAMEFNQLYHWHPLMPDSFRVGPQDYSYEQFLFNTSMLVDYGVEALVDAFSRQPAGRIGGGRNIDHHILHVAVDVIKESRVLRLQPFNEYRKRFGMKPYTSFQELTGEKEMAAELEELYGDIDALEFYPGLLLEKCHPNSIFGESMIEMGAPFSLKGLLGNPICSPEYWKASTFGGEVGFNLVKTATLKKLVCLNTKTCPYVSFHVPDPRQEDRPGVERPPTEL

[2] = biological target: T2, Prostaglandin G/H synthase 2 (Homo sapiens, UniProt P35354); experiment: Inhibition of recombinant human prostaglandin G/H synthase 2 (COX-2)
T2 sequence (P35354 whole entry): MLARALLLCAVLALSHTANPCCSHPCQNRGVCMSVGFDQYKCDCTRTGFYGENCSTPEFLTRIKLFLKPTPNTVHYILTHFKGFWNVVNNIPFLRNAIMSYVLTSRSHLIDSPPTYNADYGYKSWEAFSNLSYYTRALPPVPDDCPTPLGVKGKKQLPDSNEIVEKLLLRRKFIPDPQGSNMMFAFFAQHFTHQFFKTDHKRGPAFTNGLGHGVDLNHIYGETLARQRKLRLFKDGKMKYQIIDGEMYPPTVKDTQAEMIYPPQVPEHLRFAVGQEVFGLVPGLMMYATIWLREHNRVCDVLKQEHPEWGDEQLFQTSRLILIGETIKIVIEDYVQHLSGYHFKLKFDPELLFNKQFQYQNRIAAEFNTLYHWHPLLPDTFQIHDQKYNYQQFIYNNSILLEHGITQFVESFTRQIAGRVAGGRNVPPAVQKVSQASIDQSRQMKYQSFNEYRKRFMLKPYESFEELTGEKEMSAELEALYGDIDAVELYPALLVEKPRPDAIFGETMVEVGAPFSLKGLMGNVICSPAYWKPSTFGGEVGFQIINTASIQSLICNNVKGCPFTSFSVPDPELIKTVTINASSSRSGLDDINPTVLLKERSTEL

[3] = biological target: T3, Prostaglandin G/H synthase 2 (Mus musculus, UniProt Q05769)
T3 sequence (Q05769 whole entry): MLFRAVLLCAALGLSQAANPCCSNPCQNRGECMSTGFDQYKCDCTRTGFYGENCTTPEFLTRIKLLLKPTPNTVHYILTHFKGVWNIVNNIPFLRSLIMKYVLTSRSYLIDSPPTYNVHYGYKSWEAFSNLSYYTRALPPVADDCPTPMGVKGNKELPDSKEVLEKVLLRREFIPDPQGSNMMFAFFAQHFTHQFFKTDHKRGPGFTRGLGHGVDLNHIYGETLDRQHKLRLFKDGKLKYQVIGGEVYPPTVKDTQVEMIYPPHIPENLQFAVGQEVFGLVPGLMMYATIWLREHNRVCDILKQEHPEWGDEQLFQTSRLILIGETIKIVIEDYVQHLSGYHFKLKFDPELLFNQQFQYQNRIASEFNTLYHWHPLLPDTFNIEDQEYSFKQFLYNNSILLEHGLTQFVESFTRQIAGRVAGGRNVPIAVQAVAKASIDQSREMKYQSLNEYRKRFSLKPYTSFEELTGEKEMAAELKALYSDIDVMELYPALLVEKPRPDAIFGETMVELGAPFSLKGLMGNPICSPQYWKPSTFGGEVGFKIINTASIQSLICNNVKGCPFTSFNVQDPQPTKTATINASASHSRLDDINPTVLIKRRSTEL

[4] = biological target: Prostaglandin G/H synthase 1 (Homo sapiens, UniProt P23219); experiment: IC50 value against Prostaglandin G/H synthase 1 of human platelet rich plasma; format: cell-free
Prostaglandin G/H synthase 1 (Homo sapiens, UniProt P23219), sequence (P23219 whole entry): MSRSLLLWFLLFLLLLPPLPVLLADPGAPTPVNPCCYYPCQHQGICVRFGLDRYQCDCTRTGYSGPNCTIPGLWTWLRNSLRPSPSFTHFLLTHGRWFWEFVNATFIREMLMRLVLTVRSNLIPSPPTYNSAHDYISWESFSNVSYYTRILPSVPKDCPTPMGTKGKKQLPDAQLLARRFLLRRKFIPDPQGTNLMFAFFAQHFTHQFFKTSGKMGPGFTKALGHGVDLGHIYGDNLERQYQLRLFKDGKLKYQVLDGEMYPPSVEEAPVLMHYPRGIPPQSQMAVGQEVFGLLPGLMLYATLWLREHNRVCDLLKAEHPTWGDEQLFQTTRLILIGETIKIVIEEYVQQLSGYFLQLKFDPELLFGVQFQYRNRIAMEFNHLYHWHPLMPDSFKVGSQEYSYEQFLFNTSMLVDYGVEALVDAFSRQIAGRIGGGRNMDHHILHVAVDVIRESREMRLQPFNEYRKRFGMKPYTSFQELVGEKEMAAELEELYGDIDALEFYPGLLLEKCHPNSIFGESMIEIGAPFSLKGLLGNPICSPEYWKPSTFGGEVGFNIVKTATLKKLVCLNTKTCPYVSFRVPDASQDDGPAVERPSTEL

[5] = biological target: T3, Prostaglandin G/H synthase 2; experiment: IC50 value against Prostaglandin G/H synthase 2 of murine J774A.1 cell line
Rattus norvegicus [6] = organism: Rattus norvegicus; experiment: Percentage inhibition of the prostaglandin synthesis was measured in rats.; format: functional
Rattus norvegicus [7] = organism: Rattus norvegicus; experiment: ED50 was measured by CFE assay method.; format: functional
Rattus norvegicus [8] = organism: Rattus norvegicus; experiment: Lesion frequency was measured in rats.; format: functional
Rattus norvegicus [9] = organism: Rattus norvegicus; experiment: Percentage of gastric damage was measured in rats.; format: functional, Stomach
Rattus norvegicus [10] = organism: Rattus norvegicus; experiment: ED50 was measured by hyperalgesia assay method.; format: functional

| Structure (SMILES) | IC50 [1] [µM] | IC50 [2] [µM] | IC50 [3] [µM] | IC50 [4] [µM] | IC50 [5] | Inhibition (Rattus norvegicus [6]) [%] | ED50 (Rattus norvegicus [7]) [mg/kg] | Lesion frequency (Rattus norvegicus [8]) [%] | Damaged area (Rattus norvegicus [9]) [%] | ED50 (Rattus norvegicus [10]) [mg/kg] |
| --- | --- | --- | --- | --- | --- | --- | --- | --- | --- | --- |
| CC(=O)Nc1nc(-c2cc(C(C)(C)C)c(O)c(C(C)(C)C)c2)ns1 | > 20 | > 20 |  |  |  |  |  |  |  |  |
| CC(C)(C)c1cc(-c2nnc(S)o2)cc(C(C)(C)C)c1O | > 20 | 47 | 0.92 | > 20 |  |  |  |  |  |  |
| CCCSc1nnc(-c2cc(C(C)C)c(O)c(C(C)C)c2)s1 | > 20 | > 20 | 1.5 | > 20 |  |  |  |  |  |  |
| CCCSc1nnc(-c2cc(C(C)(C)C)c(O)c(C(C)(C)C)c2)s1 | > 20 | 100 |  | 4.1 | Not Active |  |  |  |  |  |
| CCN(CC)CCSc1nnc(-c2cc(C(C)(C)C)c(O)c(C(C)(C)C)c2)s1 | > 20 | 19 | > 20 | > 20 |  |  |  |  |  |  |
| CCSc1nnc(-c2cc(C(C)(C)C)c(O)c(C(C)(C)C)c2)s1.C[N+](C)(C)CC[O-] |  |  |  |  |  | 77.4 | 7.1 | 12.5 | 0.05 |  |
| CC(C)(C)c1cc(-c2nnc(SCC(F)(F)F)s2)cc(C(C)(C)C)c1O | > 20 | > 20 |  | > 20 | Not Active |  |  |  |  |  |
| CC(C)Sc1nnc(-c2cc(C(C)(C)C)c(O)c(C(C)(C)C)c2)s1 | > 20 | > 20 | 8.5 | 13.6 |  |  |  |  |  |  |
| CCSc1nnc(-c2cc(C(C)C)c(O)c(C(C)C)c2)s1 | > 20 | > 20 | 1.3 | > 20 |  |  |  |  |  |  |
| CC(C)(C)c1cc(-c2nsc(NS(C)(=O)=O)n2)cc(C(C)(C)C)c1O | > 20 | > 20 |  |  |  |  |  |  |  |  |
| CC(C)(C)c1cc(-c2nnc(O)o2)cc(C(C)(C)C)c1O | > 20 | > 20 | > 20 | 3.2 |  |  |  |  |  |  |
| CC(C)(C)c1cc(-c2nnc(O)s2)cc(C(C)(C)C)c1O | > 20 | > 20 | 0.24 | 4.1 |  |  |  |  |  |  |
| COc1ccc2c(c1)c(CC(=O)O)c(C)n2C(=O)c1ccc(Cl)cc1 [INDOMETHACIN] |  |  |  |  |  | 13.36 | 1.6 | 75 | 0.18 | 0.6 |
| CC[S+]([O-])c1nnc(-c2cc(C(C)(C)C)c(O)c(C(C)(C)C)c2)s1 (stereo not drawn) | > 20 | > 20 | 0.23 | 14.6 |  |  |  |  |  |  |
| CC(C)Sc1nnc(-c2cc(C(C)C)c(O)c(C(C)C)c2)s1 | > 20 | > 20 |  |  |  |  |  |  |  |  |
| CC(C)Oc1nnc(-c2cc(C(C)(C)C)c(O)c(C(C)(C)C)c2)s1 | > 20 | > 20 |  | 4.5 | Not Active |  |  |  |  |  |
| CCCOc1nnc(-c2cc(C(C)(C)C)c(O)c(C(C)(C)C)c2)s1 | > 20 | > 20 |  | 3.6 | Not Active |  |  |  |  |  |
| CSc1nnc(-c2cc(C(C)(C)C)c(O)c(C(C)(C)C)c2)s1 | 0.51 | 0.15 | 0.009 | 0.18 |  |  |  |  |  |  |
| CC(C)(C)c1cc(-c2nnc(NC#N)o2)cc(C(C)(C)C)c1O |  | 11 | 0.39 | 5.8 |  |  |  |  |  |  |
| COC(=O)CCSc1nnc(-c2cc(C(C)(C)C)c(O)c(C(C)(C)C)c2)s1 | > 20 | > 20 |  | 9.9 | Not Active |  |  |  |  |  |
| CS(=O)(=O)c1ccc(-n2nc(C(F)(F)F)cc2-c2ccc(F)cc2)cc1 [SC-58125] |  |  |  |  |  | -1.58 | > 30 | 0 | 0 | 0.3 |
| CC(C)(C)c1cc(-c2nnc(SCc3ccccc3)s2)cc(C(C)(C)C)c1O | > 20 | > 20 | > 20 | > 20 |  |  |  |  |  |  |
| CCCSc1nnc(-c2cc(C(C)(C)C)c(O)c(C(C)(C)C)c2)o1 | > 20 | > 20 |  | 1.9 | Not Active |  |  |  |  |  |
| COc1c(C(C)(C)C)cc(-c2nnc(S)s2)cc1C(C)(C)C | > 20 | 1.5 | 0.3 | > 20 |  |  |  |  |  |  |
| C[S+]([O-])c1nnc(-c2cc(C(C)(C)C)c(O)c(C(C)(C)C)c2)s1 (stereo not drawn) | > 20 | > 20 |  | > 20 |  |  |  |  |  |  |
| CC(C)(C)c1cc(-c2nnc(SCCC(=O)O)s2)cc(C(C)(C)C)c1O | > 20 | > 20 |  | > 20 | Not Active |  |  |  |  |  |
| CCSc1nnc(-c2cc(C(C)(C)C)c(O)c(C(C)(C)C)c2)o1 | > 20 | 6.5 | 0.015 | 1.9 |  |  |  |  |  |  |

More lines, main results first:

| IC50 [1] [µM] | IC50 [2] [µM] | IC50 [3] [µM] | IC50 [4] [µM] | IC50 [5] | Structure (SMILES) | Inhibition (Rattus norvegicus [6]) [%] | ED50 (Rattus norvegicus [7]) [mg/kg] | Lesion frequency (Rattus norvegicus [8]) [%] | Damaged area (Rattus norvegicus [9]) [%] | ED50 (Rattus norvegicus [10]) [mg/kg] |
| --- | --- | --- | --- | --- | --- | --- | --- | --- | --- | --- |
| > 20 | > 20 |  |  |  | CC(C)(C)c1cc(-c2nsc(N)n2)cc(C(C)(C)C)c1O |  |  |  |  |  |
| 24 | 27 | > 20 | 1.7 |  | CC(C)(C)c1cc(-c2nsc(N=C(N)N)n2)cc(C(C)(C)C)c1O |  |  |  |  |  |
| 12 |  | 0.14 | 1.2 |  | CSc1nnc(-c2cc(C(C)(C)C)c(O)c(C(C)(C)C)c2)o1 |  |  |  |  |  |
| 51 | 0.064 | 1.4 | 1.2 |  | CC(C)(C)c1cc(-c2noc(NC#N)n2)cc(C(C)(C)C)c1O |  |  |  |  |  |
| 24 | 100 |  |  |  | COc1nc(-c2cc(C(C)(C)C)c(O)c(C(C)(C)C)c2)ns1 |  |  |  |  |  |
| 17 | 1.3 | 3.7 | 3.2 |  | CC(C)(C)c1cc(-c2nnc(NN)s2)cc(C(C)(C)C)c1O |  |  |  |  |  |
| 0.52 | 9.6 | 0.69 | 0.3 |  | CNc1nnc(-c2cc(C(C)(C)C)c(O)c(C(C)(C)C)c2)s1 |  |  |  |  |  |
| 0.097 |  | 0.026 | 0.2 |  | CSc1nnc(-c2nc(C(C)(C)C)c(O)c(C(C)(C)C)n2)s1 |  |  |  |  |  |
| 5.8 | 0.34 | 0.012 | 0.77 |  | COc1c(C(C)(C)C)cc(-c2nnc(SC)s2)cc1C(C)(C)C |  |  |  |  |  |
| 100 | 0.14 | 0.18 | 3.1 |  | CCSc1nnc(-c2cc(C(C)(C)C)c(O)c(C(C)(C)C)c2)s1 |  |  |  |  |  |
| 3.4 | 6.1 | 0.07 | 1.2 |  | CCOc1nnc(-c2cc(C(C)(C)C)c(O)c(C(C)(C)C)c2)s1 |  |  |  |  |  |
| 2.6 | 3 |  | 0.2 |  | COc1nnc(-c2cc(C(C)(C)C)c(O)c(C(C)(C)C)c2)s1 |  |  |  |  |  |
| 83 | 1.1 | 0.018 | 0.43 |  | CC(C)(C)c1cc(-c2nc(=O)s[nH]2)cc(C(C)(C)C)c1O |  |  |  |  |  |
| 20 |  | 0.35 | > 20 |  | CC(C)(C)c1cc(-c2nnc(S)s2)cc(C(C)(C)C)c1O |  |  |  |  |  |
| 36 | 41 |  | > 20 | Not Active | CC(C)(C)c1cc(-c2nnc(SCCN)s2)cc(C(C)(C)C)c1O |  |  |  |  |  |
| 88 | 17 | 0.21 | 2.8 |  | CC(C)(C)c1cc(-c2nnc(N=C(N)N)s2)cc(C(C)(C)C)c1O |  |  |  |  |  |
